Source: patent publication US20090326003A1, “PYRAZOLO (3, 4-B) PYRIDINE DERIVATIVES AS PDE4 INHIBITORS” (priority 2006, published 2009)
Values belong to the compound of their own block, whether it stands above or below them.

Experiments:
COPD patients = conditions: cited from earlier work
[1] = test system: humans with histories of allergic rhinitis; conditions: orally 500 ug once daily for 9 days; intranasal allergen provocation (pollen extracts); cited from earlier work
[2] = test system: TNF-α production in human PBMC (peripheral blood mononuclear cells); experiment: Inhibition of TNF-alpha production in human PBMC (MSD technology); type: cell-based; conditions: inhibition of LPS-stimulated TNF-α production in human PBMC; measured and/or mean; read-out: PBMC pIC50 (MSD assay) (converted)
Procedure: A 96-well plate (96 MicroWell™ Plates Nunclon™Δ-High Flange Design, Fisher Scientific UK, Bishop Meadow Road, Loughborough LE 11 5 RG, Leicestershire, UK) is prepared by initially adding to column 1 ca. 10 mM of test compound dissolved in DMSO. […] The compound is further diluted with DMSO into columns 2 to 9 by 8 successive 3fold dilutions using the Biomek® FX Laboratory Automation Workstation (Beckman Coulter, Inc., 4300 N. Harbor Boulevard, P.O. Box 3100, Fullerton, Calif. 92834-3100 USA). Column 10 is used as a DMSO negative control (High Signal, 0% response), whilst column 11, which contains 10 mM of the PDE4 inhibitor roflumilast, is used as a positive control (Low Signal, 100% response). About 1 μl (about 1 ul) of compound is transferred to the compound plate using the Biomek® FX.
PBMC cells (peripheral blood mononuclear cells) are prepared from heparinised human blood (using 1% v/v Heparin Sodium 10001 U/ml Endotoxin Free, Leo Laboratories Ltd., Cashel Road, Dublin 12. Ireland, Cat No: PL0043/0149) from normal volunteers using the Accuspin™ System-Histopaque®-1077 essentially (Sigma-Aldrich Company Ltd., The Old Brickyard New Rd, Gillingham Dorset SP8 4XT). About 20 ml of blood is overlaid onto 15 ml Histopaque® in Accuspin™ tubes. The tube is then centrifuged at about 800 g for ca. 20 minutes. The cells are collected from the interface, washed by centrifugation (ca. 1300 g, ca. 10 minutes) and resuspended in RPMI1640 medium (Low endotoxin RPMI1640 medium, Cat No: 31870-025, Invitrogen Corporation Invitrogen Ltd, 3 Fountain Drive, Inchinnan Business Park, Paisley PA4 9RF, UK) containing 10% foetal calf serum, 1% L-glutamine (Invitrogen Corporation, Cat No: 25030024) and 1% penicillin/streptomycin (Invitrogen Corporation, Cat No: 15140-122). Viable cells are counted by trypan blue staining and diluted to 1×10^6 viable cells/ml. About 50 μl (about 50 ul) of diluted cells and about 75 μl (about 75 ul) of LPS (ca. 1 ng/ml final; Sigma Cat No: L-6386) are added to the compound plate, which is then incubated at 37° C., 5% CO2, for 20 hours.
The supernatant is removed and the concentrations of TNF-α are determined by electrochemiluminescence assay using the Meso Scale Discovery (MSD) technology (Meso Scale Discovery, 9238 Gaither Road, Gaithersburg, Md. 20877, USA). See the “TNF-α (TNF-alpha) MSD Assay” described below for typical details.
Using the Biomek FX, 25 μl (25 ul) of MSD Human Serum Cytokine Assay Diluent (Meso Scale Discovery, 9238 Gaither Road, Gaithersburg, Md. 20877) is added to a 96-well High-Bind MSD plate pre-coated with anti-hTNF alpha capture antibody (MA6000) and then incubated for 24 hours at 4° C. to prevent non-specific binding. […]
For the PBMC assay, about 20 μl (ul) of diluted sulfo-TAG antibody (ca. 1 μg/ml final) is added to each well, and the plates/wells are shaken at room temperature for 2 hours. Finally, about 90 μl (ul) of MSD Read Buffer P (diluted to 2.5 times with distilled water) is added and the plates are read on a MSD Sector 6000.
Data analysis is performed with ActivityBase/XC50 module (ID Business Solutions Ltd., 2 Occam Court, Surrey Research Park, Guildford, Surrey, GU2 7QB UK). Data are normalized and expressed as % inhibition using the formula 100*((U-C1)/(C2-C1)) where U is the unknown value, C1 is the average of the high signal (0%) control wells (column 10), and C2 is the average of the low signal (100%) control wells (column 11). […]

[3] = molecular target: T1, PDE4B (human recombinant) (Homo sapiens, UniProt Q07343); experiment: PDE4B inhibition, fluorescence polarisation (FP) and/or SPA assay; type: biochemical; conditions: n=1 or average of 2 or more readings, accuracy ±about 0.5 log unit, read-out: PDE4B pIC50 (generally in FP assay) (±about 0.5) (converted)
T1 construct: made in house
T1 sequence (Q07343 1-564 isoform Q07343-2): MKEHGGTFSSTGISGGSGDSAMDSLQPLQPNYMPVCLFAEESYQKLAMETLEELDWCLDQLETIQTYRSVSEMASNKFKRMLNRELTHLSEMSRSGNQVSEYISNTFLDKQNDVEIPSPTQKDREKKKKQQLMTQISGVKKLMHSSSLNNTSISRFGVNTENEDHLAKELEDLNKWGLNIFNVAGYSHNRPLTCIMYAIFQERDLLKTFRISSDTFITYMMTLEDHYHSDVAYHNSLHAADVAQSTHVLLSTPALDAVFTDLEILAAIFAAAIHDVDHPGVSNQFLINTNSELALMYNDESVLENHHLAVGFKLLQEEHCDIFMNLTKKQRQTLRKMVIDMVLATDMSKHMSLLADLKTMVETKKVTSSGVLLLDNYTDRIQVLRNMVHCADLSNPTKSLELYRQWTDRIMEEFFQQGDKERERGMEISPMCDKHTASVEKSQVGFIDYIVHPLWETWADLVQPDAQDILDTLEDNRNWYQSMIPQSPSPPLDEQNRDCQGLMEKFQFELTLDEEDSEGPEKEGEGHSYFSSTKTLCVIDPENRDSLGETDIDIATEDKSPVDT
Source text: Human recombinant PDE4B, in particular the 2B splice variant thereof (HSPDE4B2B), is disclosed in WO 94/20079 and also M. M. McLaughlin et al., “A low Km, rolipram-sensitive, cAMP-specific phosphodiesterase from human brain: cloning and expression of cDNA, biochemical characterisation of recombinant protein, and tissue distribution of mRNA”, J. Biol. Chem., 1993, 268, 6470-6476. For example, in Example 1 of WO 94/20079, human recombinant PDE4B is described as being expressed in the PDE-deficient yeast Saccharomyces cerevisiae strain GL62, e.g. after induction by addition of 150 uM CuSO4, and 100,000×g supernatant fractions of yeast cell lysates are described for use in the harvesting of PDE4B enzyme.
The ability of compounds to inhibit catalytic activity at PDE4B or 4D (human recombinant), PDE3 (from bovine aorta), PDE5 (human recombinant) or PDE6 (from bovine retina) can optionally be determined by Scintillation Proximity Assay (SPA) in a 96-well format.
Test compounds (as a solution in DMSO, preferably about 2 microliter (ul) volume of DMSO solution) are preincubated at ambient temperature (room temperature, e.g. 19-23° C.) in Wallac Isoplates (code 1450-514) with PDE enzyme in 50 mM Tris-HCl buffer pH 7.5, 8.3 mM MgCl2, 1.7 mM EGTA, 0.05% (w/v) bovine serum albumin for 10-30 minutes (usually 30 minutes). The enzyme concentration is adjusted so that no more than 20% hydrolysis of the substrate defined below occurs in control wells without compound, during the incubation. For the PDE3, PDE4B and PDE4D assays, [5′,8-3H]Adenosine 3′,5′-cyclic phosphate (Amersham Pharmacia Biotech, code TRK.559; or Amersham Biosciences UK Ltd, Pollards Wood, Chalfont St Giles, Buckinghamshire HP8 4SP, UK) is added to give 0.05 uCi per well and about 10 nM final concentration. For the PDE5 and PDE6 assays, [8-^3H]Guanosine 3′,5′-cyclic phosphate (Amersham Pharmacia Biotech, code TRK.392) is added to give 0.05 uCi per well and about 36 nM final concentration. Plates containing assay mixture, preferably approx. 100 ul volume of assay mixture, are mixed on an orbital shaker for 5 minutes and incubated at ambient temperature for 1 hour. Phosphodiesterase SPA beads (Amersham Pharmacia Biotech, code RPNQ 0150) are added (about 1 mg per well) to terminate the assay. Plates are sealed and shaken and allowed to stand at ambient temperature for 35 minutes to 1 hour (preferably 35 minutes) to allow the beads to settle. Bound radioactive product is measured using a WALLAC TRILUX 1450 Microbeta scintillation counter. For inhibition curves, 10 concentrations (e.g. 1.5 nM-30 uM) of each compound are assayed. Curves are analysed using ActivityBase and XLfit (ID Business Solutions Limited, 2 Ocean Court, Surrey Research Park, Guildford, Surrey GU2 7QB, United Kingdom) Results are expressed as pIC50 values.
The ability of compounds to inhibit catalytic activity at PDE4B (human recombinant) or PDE4D (human recombinant) can optionally be determined by IMAP Fluorescence Polarisation (FP) assay (IMAP Explorer kit, available from Molecular Devices Corporation, Sunnydale, Calif., USA; Molecular Devices code: R8062) in 384-well format.
The IMAP FP assay is able to measure PDE activity in an homogenous, non-radioactive assay format. The FP assay uses the ability of immobilised trivalent metal cations, coated onto nanoparticles (tiny beads), to bind the phosphate group of FI-AMP that is produced on the hydrolysis of fluorescein-labelled (FI) cyclic adenosine mono-phosphate (FI-cAMP) to the non-cyclic FI-AMP form. […] Binding of FI-AMP product to the beads (coated with the immobilised trivalent cations) slows the rotation of the bound FI-AMP and leads to an increase in the fluorescence polarisation ratio of parallel to perpendicular light. Inhibition of the PDE reduces/inhibits this signal increase. […]

[4] = test system: atopic dermatitis patients; conditions: 0.5% ointment, twice daily topical application; cited from earlier work
[5] = test system: atopic dermatitis patients; conditions: 0.15% cream versus vehicle and hydrocortisone 17-butyrate (0.1%) cream; cited from earlier work

Compound: COc1ccc([C@]2(C#N)CC[C@@H](C(=O)O)CC2)cc1OC1CCCC1 [cilomilast]
- forced expiratory volume in 1 s (FEV1) in COPD patients (COPD patients; 15 mg orally twice daily): appears to improve
- antiinflammatory effects in COPD patients (COPD patients; COPD patients): appears to have antiinflammatory effects

Compound: O=C(Nc1c(Cl)cncc1Cl)c1ccc(OC(F)F)c(OCC2CC2)c1 [roflumilast]
- FEV1 in COPD patients (COPD patients; COPD patients, dose not stated): small improvements
- rhinal airflow during the treatment period (compared to placebo) [1]: effective in improving rhinal airflow

- IC50 [3]: ~25.1 pM
Compound: CCn1ncc2c(NC3CCOCC3)c(CNC(=O)c3ccc(-c4ccc(C(=O)NCc5c(C)nc6c(cnn6CC)c5NC5CCOCC5)cc4)cc3)c(C)nc21 [Example 28, N,N′-bis{[1-ethyl-6-methyl-4-(tetrahydro-2H-pyran-4-ylamino)-1H-pyrazolo[3,4-b]pyridin-5-yl]methyl}-4,4′-biphenyldicarboxamide]
- IC50 [2]: ~126 pM

Compound: COc1ccc(C2CNC(=O)NC2)cc1O[C@H]1C[C@@H]2CC[C@H]1C2 [CP80,633]
- inflammatory parameters in atopic dermatitis patients [4]: reductions of inflammatory parameters

Compound: Nc1nc2c([nH]1)c(=O)n(CC1CC1)c(=O)n2CC1CC1 [cipamfylline]
- effectiveness in the treatment of atopic dermatitis patients [5]: significantly more effective than vehicle, but significantly less effective than hydrocortisone 17-butyrate (0.1%) cream
